ChEMBL document CHEMBL5537151, “Design, synthesis and bioactivity evaluation of novel fusion peptides and their CPT conjugates inducing effective anti-tumor responses on HER2 positive tumors” (Eur J Med Chem, 2024)
Activity calls are given as the source filed them. The calls are words filed in the database; no cut-off is given here. Peptide text beside a SMILES is read from it. * marks the point of attachment. X1 = CCC1(C(=O)OCCS*)C(=O)OCc2c1cc1n(c2=O)Cc2cc3ccccc3nc2-1

Assays:
SK-BR-3 [1] = assay: Induction of apoptosis in human SK-BR-3 cells assessed as downregulation of XIAP protein expression at 2.5 to 5 uM incubated for 24 hrs by Western blot analysis; assay type: functional, cell-based; conditions: dose 2.5-5 µM
[2] = Toxicity in nude mouse xenografted with human SK-BR-3 cells assessed as cell necrosis in spleen at 8 umol/kg, iv administered every 3 days for 14 days by H and E staining based analysis; assay type: organism-based; conditions: in vivo, 336 h, dose 8 µmol/kg, time 14 day
SK-BR-3 [3] = assay: Induction of apoptosis in human SK-BR-3 cells assessed as necrotic cells at 1 uM incubated for 24 hrs by Annexin V-FITC/PI staining based flow cytometry analysis (reference value: 1.49%); assay type: functional
[4] = Toxicity in nude mouse xenografted with human SK-BR-3 cells assessed as increase in ALT level at 8 umol/kg, iv administered every 3 days for 14 days; assay type: organism-based; conditions: in vivo, 336 h, dose 8 µmol/kg, time 14 day
SK-BR-3 [5] = assay: cells; conditions: Homo sapiens, SK-BR-3, 48 h
Description: Cytotoxicity against HER-positive human SK-BR-3 cells incubated for 48 hrs by CCK-8 assay

[6] = Drug release in human SK-BR-3 cells assessed as cathepsin-mediated camptothecin release by measuring increase in blue fluorescence at 10 uM incubated for 6 hrs by FITC/Lysotracker red dye based laser confocal microscopic analysis; assay type: ADME, cell-based; conditions: sk-br-3, 6 h
MDA-MB-231 = assay: cells; conditions: Homo sapiens, MDA-MB-231, 48 h
Description: Cytotoxicity against HER-negative human MDA-MB-231 cells incubated for 48 hrs by CCK-8 assay

[7] = Drug localization in lysosome of human SK-BR-3 cells assessed as increase in green fluorescence of FITC at 10 uM incubated for 6 hrs by FITC/Lysotracker red dye based laser confocal microscopic analysis; assay type: ADME, subcellular; conditions: sk-br-3, 6 h
NCI-N87 = assay: cells; conditions: Homo sapiens, NCI-N87, 48 h
Description: Cytotoxicity against HER-positive human NCI-N87 cells incubated for 48 hrs by CCK-8 assay

SK-BR-3 [8] = assay: Induction of apoptosis in human SK-BR-3 cells assessed as downregulation of cIAP1 protein expression at 2.5 uM by Western blot analysis; assay type: functional, cell-based; conditions: time 24-48 hrs, TDE = time-dependent effect
[9] = Drug localization in lysosome of human SK-BR-3 cells assessed as increase in red fluorescence of lysosomal dye at 10 uM incubated for 6 hrs by FITC/Lysotracker red dye based laser confocal microscopic analysis; assay type: ADME, subcellular; conditions: sk-br-3, 6 h
[10] = Toxicity in nude mouse xenografted with human SK-BR-3 cells assessed as change in total protein level at 8 umol/kg, iv administered every 3 days for 14 days; assay type: organism-based; conditions: in vivo, 336 h, dose 8 µmol/kg, time 14 day

With CC[C@H](C)[C@H](NC(=O)[C@@H]1CCCN1C(=O)[C@@H](NC(=O)[C@H](C)N)C(C)C)C(=O)N[C@@H](C)C(=O)N[C@@H](CCC(N)=O)C(=O)N[C@@H](CCCCN)C(=O)N[C@@H](CSSCCOC(=O)C1(CC)C(=O)OCc2c1cc1n(c2=O)Cc2cc3ccccc3nc2-1)C(=O)NCC(=O)N[C@@H](Cc1ccccc1)C(=O)N[C@@H](CC(C)C)C(=O)NCC(=O)N[C@@H](CC(N)=O)C(=O)N1CCC[C@H]1C(=O)N[C@@H](CC(N)=O)C(=O)N[C@@H](Cc1c[nH]c2ccccc12)C(=O)NCC(=O)N[C@@H](CCCNC(=N)N)C(=O)N[C@@H](CO)C(=O)N[C@@H](Cc1c[nH]c2ccccc12)C(=O)N[C@@H](Cc1ccc(O)cc1)C(=O)N[C@@H](CC(N)=O)C(=O)N[C@@H](CCC(N)=O)C(=O)N[C@@H](CCCNC(=N)N)C(=O)N[C@@H](Cc1ccccc1)C(=O)N[C@@H](CCCCN)C(N)=O (some centres not stated) (H-AVPIAQKC(X1)GFLGNPNWGRSWYNQRFK-NH2) as the molecule, how does the Activity (SK-BR-3 [1]) read?
Its Activity is “Active”.

What about the Activity [2] of the same molecule?
Its Activity is “Non-Toxic”.

What about the Activity (SK-BR-3 [3]) of the same molecule?
Its Activity is 3.42%.

And the Activity [4]?
Its Activity is “Toxic”.

What about the IC50 (SK-BR-3 [5]) of the same molecule?
The IC50 was 0.53 µM.

And the Drug metabolism [6]?
The Drug metabolism was “Metabolite_Detected”.

And the IC50 (MDA-MB-231)?
Its IC50 is 18.4 µM.

What about the Drug uptake [7] of the same molecule?
The Drug uptake was “Active”.

And the IC50 (NCI-N87)?
The IC50 was 1.58 µM.

And the Activity (SK-BR-3 [8])?
Its Activity is “Tde”.

What about the Drug uptake [9] of the same molecule?
The Drug uptake was “Active”.

What about the Activity [10] of the same molecule?
The Activity was “Non-Toxic”.
